Literature values, collected in US5908934A, “Process for the preparation of chiral ketone intermediates useful for the preparation of flavopiridol and analogs” (Bristol-Myers Squibb Company, priority 1997, dated 1999).

Tested on: apoptosis
Conditions: combination with known cytotoxic agents; J. Cell Sci., 108, 2897 (1995)

Cn1cnc2c(NCc3ccccc3)nc(NCCO)nc21 [olomucine]
synergy with known cytotoxic agents in inducing apoptosis: act synergistically with known cytotoxic agents in inducing apoptosis
